In brackets after ≈: the same amount, converted by molar mass.
Tests used:
[1] = system: Mycobacteroides abscessus; test: Antibacterial activity against Mycobacterium abscessus ATCC 19977 incubated for 3 days by microplate alamar blue assay; type: functional; settings: ATCC 19977, 72 h, time 3 day
Mycobacteroides chelonae = test: Antibacterial activity against Mycobacteroides chelonae ATCC 35752 incubated for 3 days by microplate alamar blue assay; type: functional; settings: ATCC 35752, 72 h, time 3 day
Mycobacterium marinum = test: Antibacterial activity against Mycobacterium marinum ATCC 927 incubated for 5 days by microplate alamar blue assay; type: functional; settings: ATCC 927, 120 h, time 5 day
Mycobacterium avium = test: Antibacterial activity against Mycobacterium avium ATCC 15769 incubated for 6 days by microplate alamar blue assay; type: functional; settings: ATCC 15769, 144 h, time 6 day
Mycobacterium kansasii = test: Antibacterial activity against Mycobacterium kansasii ATCC 12478 incubated for 7 days by microplate alamar blue assay; type: functional; settings: ATCC 12478, 168 h, time 7 day
[2] = system: Mycobacterium tuberculosis; test: Antitubercular activity against Mycobacterium tuberculosis H37Rv ATCC 27294 by microplate alamar blue assay; type: functional
[3] = system: Mycobacterium tuberculosis; test: Antitubercular activity against Mycobacterium tuberculosis H37Rv by microplate alamar blue assay; type: functional
[4] = system: Mycobacterium tuberculosis; test: Antitubercular activity against Mycobacterium tuberculosis KMA 1354 by microplate alamar blue assay; type: functional
[5] = system: Mycobacterium tuberculosis; test: Antitubercular activity against Mycobacterium tuberculosis KMA 3899 by microplate alamar blue assay; type: functional
[6] = system: Mycobacterium tuberculosis; test: Antitubercular activity against Mycobacterium tuberculosis KMA 4244 by microplate alamar blue assay; type: functional
[7] = system: Mycobacterium tuberculosis; test: Antitubercular activity against Mycobacterium tuberculosis KMA 4439 by microplate alamar blue assay; type: functional
[8] = system: Mycobacterium tuberculosis; test: Antitubercular activity against Mycobacterium tuberculosis KMA 5282 by microplate alamar blue assay; type: functional
[9] = Cytotoxicity against African green monkey Vero cells measured after 3 days by resazurin dye based fluorescence assay; type: toxicity, cell-based; settings: African green monkey (Chlorocebus sabaeus)
[10] = system: Mycobacterium tuberculosis; test: Bactericidal activity against Mycobacterium tuberculosis H37Rv measured up to 7 days by luminescence assay; type: functional; settings: time <= 7 day
[11] = system: Mycobacterium tuberculosis; test: Antitubercular activity against Mycobacterium tuberculosis H37Rv assessed as post antibiotic affect by measuring time required for 1 log10 increase in RLU at 5 uM measured daily for up to 14 days by luminescence assay; type: functional; settings: time <= 14 day
[12] = system: Mycobacterium tuberculosis; test: Antitubercular activity against Mycobacterium tuberculosis H37Rv assessed as post antibiotic affect by measuring time required for 1 log10 increase in RLU at 0.5 uM measured daily for up to 14 days by luminescence assay; type: functional; settings: time <= 14 day
[13] = system: Mycobacterium tuberculosis; test: Antitubercular activity against Mycobacterium tuberculosis H37Rv assessed as post antibiotic affect by measuring time required for 1 log10 increase in RLU at 0.05 uM measured daily for up to 14 days by luminescence assay; type: functional; settings: time <= 14 day
Enterococcus faecium = test: Antibacterial activity against Enterococcus faecium by microplate alamar blue assay; type: functional
Staphylococcus aureus = test: Antibacterial activity against Staphylococcus aureus by microplate alamar blue assay; type: functional
Klebsiella pneumoniae = test: Antibacterial activity against Klebsiella pneumoniae by microplate alamar blue assay; type: functional
Acinetobacter baumannii = test: Antibacterial activity against Acinetobacter baumannii by microplate alamar blue assay; type: functional
Pseudomonas aeruginosa = test: Antibacterial activity against Pseudomonas aeruginosa by microplate alamar blue assay; type: functional
Klebsiella aerogenes = test: Antibacterial activity against Enterobacter aerogenes by microplate alamar blue assay; type: functional

Q: Which MIC90 [1] does the source give for CC[C@H]1OC(=O)[C@H](C)[C@@H](O[C@H]2C[C@@](C)(OC)[C@@H](O)[C@H](C)O2)[C@H](C)[C@@H](O[C@@H]2O[C@H](C)C[C@H](N(C)C)[C@H]2O)[C@](C)(OC)C[C@@H](C)C(=O)[C@H](C)[C@@H](O)[C@]1(C)O [CLARITHROMYCIN] here?
A: Its MIC90 is greater than 10 µM.

Q: And the MIC90 (Mycobacteroides chelonae)?
A: The MIC90 was 0.15 µM (≈ 0.112 µg/mL).

Q: What about the MIC90 (Mycobacterium marinum) of the same compound?
A: Its MIC90 is 4.72 µM (≈ 3.53 µg/mL).

Q: And the MIC90 (Mycobacterium avium)?
A: Its MIC90 is 2.35 µM (≈ 1.76 µg/mL).

Q: What about the MIC90 (Mycobacterium kansasii) of the same compound?
A: The MIC90 was 2.3 µM (≈ 1.72 µg/mL).

Q: For CO[C@H]1/C=C/O[C@@]2(C)Oc3c(C)c(O)c4c(O)c(c(/C=N/N5CCN(C)CC5)c(O)c4c3C2=O)NC(=O)/C(C)=C\C=C\[C@H](C)[C@H](O)[C@@H](C)[C@@H](O)[C@@H](C)[C@H](OC(C)=O)[C@@H]1C [RIFAMPIN], which MIC90 [2] is on record?
A: The MIC90 was 0.02 µM.

Q: And the MIC90 [3]?
A: Its MIC90 is 0.06 µM.

Q: And the MIC90 [1]?
A: Its MIC90 is greater than 10 µM.

Q: And the MIC90 (Mycobacteroides chelonae)?
A: Its MIC90 is 6.93 µM (≈ 5.7 µg/mL).

Q: And the MIC90 (Mycobacterium marinum)?
A: The MIC90 was 2.23 µM (≈ 1.84 µg/mL).

Q: What about the MIC90 (Mycobacterium avium) of the same compound?
A: Its MIC90 is 3.05 µM (≈ 2.51 µg/mL).

Q: And the MIC90 (Mycobacterium kansasii)?
A: Its MIC90 is 2.36 µM (≈ 1.94 µg/mL).

Q: And the MIC90 [4]?
A: Its MIC90 is 0.05 µM.

Q: And the MIC90 [5]?
A: The MIC90 was 0.04 µM.

Q: What about the MIC90 [6] of the same compound?
A: The MIC90 was 0.11 µM.

Q: What about the MIC90 [7] of the same compound?
A: Its MIC90 is 0.22 µM.

Q: And the MIC90 [8]?
A: Its MIC90 is 0.14 µM.

Q: And the IC50 at 3 days [9]?
A: Its IC50 at 3 days is greater than 95.7 µM.

Q: And the MBC99 [10]?
A: Its MBC99 is 70 µg/mL (≈ 85.1 µM).

Q: And the PAE [11]?
A: The PAE was roughly 60 h.

Q: What about the PAE [12] of the same compound?
A: The PAE was roughly 60 h.

Q: And the PAE [13]?
A: The PAE was roughly 24 h.

Q: Which results are given for O=[N+]([O-])c1cn2c(n1)OC[C@@H](OCc1ccc(OC(F)(F)F)cc1)C2 [PRETOMANID]?
A: MIC90 [2]: 0.1 µM; MBC99 [10]: 480 µg/mL (≈ 1340 µM)

Q: Which MIC90 [2] does the source give for O=C(CNCCC(c1ccccc1)c1ccccc1)N1CCCC1 here?
A: The MIC90 was 11.6 µg/mL.

Q: Which MIC90 [2] does the source give for COCCN(CCOC)C(=O)CCNCC1CCCO1 (stereo not drawn) here?
A: The MIC90 was 92.8 µg/mL.

Q: With CCN(CC)C(=O)CN(Cc1cccc2ccccc12)C(=O)CNCCC(c1ccccc1)c1ccccc1 as the compound, how does the MIC90 [2] read?
A: The MIC90 was 4.84 µg/mL.

Q: With C[C@H]1c2cccc(O)c2C(=O)C2=C(O)[C@]3(O)C(=O)C(C(N)=O)=C(O)[C@@H](N(C)C)[C@@H]3[C@@H](O)[C@@H]21 [DOXYCYCLINE ANHYDROUS] as the compound, how does the MIC90 (Enterococcus faecium) read?
A: The MIC90 was less than 0.195 µM.

Q: What about the MIC90 (Staphylococcus aureus) of the same compound?
A: Its MIC90 is less than 0.195 µM.

Q: What about the MIC90 (Klebsiella pneumoniae) of the same compound?
A: Its MIC90 is 0.34 µM (≈ 0.151 µg/mL).

Q: And the MIC90 (Acinetobacter baumannii)?
A: The MIC90 was less than 0.195 µM.

Q: What about the MIC90 (Pseudomonas aeruginosa) of the same compound?
A: The MIC90 was 5.49 µM (≈ 2.44 µg/mL).

Q: And the MIC90 (Klebsiella aerogenes)?
A: Its MIC90 is 2.84 µM (≈ 1.26 µg/mL).

Q: With CC(C)N(C(=O)CCN(CC(c1ccccc1)c1ccccc1)C(=O)CCNCC1CCCO1)C(C)C (stereo not drawn) as the compound, how does the MIC90 [2] read?
A: The MIC90 was 24.2 µg/mL.

Q: For O=C(CNCc1cccc2ccccc12)NCCC(c1ccccc1)c1ccccc1, which MIC90 [2] is on record?
A: Its MIC90 is 7.25 µg/mL.

Q: With CC(C)N(C(=O)CNCCC(c1ccccc1)c1ccccc1)C(C)C as the compound, how does the MIC90 [2] read?
A: Its MIC90 is 9.55 µg/mL.

Q: What does the source list for NNC(=O)c1ccncc1 [ISONIAZID]?
A: MIC90 [2]: 0.46 µM; MIC90 [3]: 0.31 µM; MIC90 [1]: > 8 µM; MIC90 (Mycobacteroides chelonae): > 8 µM; MIC90 (Mycobacterium marinum): > 8 µM; MIC90 (Mycobacterium avium): > 8 µM; MIC90 (Mycobacterium kansasii): > 8 µM; MIC90 [4]: 0.46 µM; MIC90 [5]: 0.43 µM; MIC90 [6]: 1.55 µM; MIC90 [7]: 0.41 µM; MIC90 [8]: 0.98 µM; MBC99 [10]: 250 µg/mL (≈ 1820 µM)

Q: Which MIC90 [2] does the source give for COCCN(CCOC)C(=O)CCNC(=O)CCNCc1cccc2ccccc12 here?
A: Its MIC90 is 3.87 µg/mL.

Q: Which MIC90 [1] does the source give for CC(C)/N=c1\cc2n(-c3ccc(Cl)cc3)c3ccccc3nc-2cc1Nc1ccc(Cl)cc1 [CLOFAZIMINE] here?
A: The MIC90 was 10.7 µM (≈ 5.06 µg/mL).

Q: And the MIC90 (Mycobacteroides chelonae)?
A: Its MIC90 is 5.89 µM (≈ 2.79 µg/mL).

Q: What about the MIC90 (Mycobacterium marinum) of the same compound?
A: Its MIC90 is 9.92 µM (≈ 4.7 µg/mL).

Q: And the MIC90 (Mycobacterium avium)?
A: The MIC90 was 5.78 µM (≈ 2.74 µg/mL).

Q: What about the MIC90 (Mycobacterium kansasii) of the same compound?
A: The MIC90 was 5.68 µM (≈ 2.69 µg/mL).

Q: Which MIC90 [2] does the source give for CC(C)N(C(=O)CN(Cc1cccc2ccccc12)C(=O)CNCc1cccs1)C(C)C here?
A: The MIC90 was 11.6 µg/mL.

Q: For CC(C)N(C(=O)CNCc1cccc2ccccc12)C(C)C, which MIC90 [2] is on record?
A: The MIC90 was 43.3 µg/mL.

Q: And the MIC90 [3]?
A: Its MIC90 is 88.8 µg/mL.

Q: And the MIC90 [4]?
A: Its MIC90 is 85 µg/mL.

Q: And the MIC90 [5]?
A: The MIC90 was 49.9 µg/mL.

Q: What about the MIC90 [6] of the same compound?
A: Its MIC90 is 95.5 µg/mL.

Q: What about the MIC90 [7] of the same compound?
A: Its MIC90 is 95.2 µg/mL.

Q: What about the MIC90 [8] of the same compound?
A: Its MIC90 is 93.6 µg/mL.

Q: For O=C(CCNCC1CCCO1)N1CCCC1 (stereo not drawn), which MIC90 [2] is on record?
A: The MIC90 was greater than 100 µg/mL.

Q: For COc1nc2ccc(Br)cc2cc1[C@@H](c1ccccc1)[C@@](O)(CCN(C)C)c1cccc2ccccc12 [BEDAQUILINE], which MIC90 [2] is on record?
A: Its MIC90 is 0.01 µM.

Q: What about the MIC90 [3] of the same compound?
A: Its MIC90 is 0.12 µM.

Q: What about the MIC90 [1] of the same compound?
A: Its MIC90 is 0.49 µM (≈ 0.272 µg/mL).

Q: And the MIC90 (Mycobacteroides chelonae)?
A: Its MIC90 is 0.48 µM (≈ 0.267 µg/mL).

Q: And the MIC90 (Mycobacterium marinum)?
A: Its MIC90 is 0.45 µM (≈ 0.25 µg/mL).

Q: And the MIC90 (Mycobacterium avium)?
A: The MIC90 was 0.44 µM (≈ 0.244 µg/mL).

Q: What about the MIC90 (Mycobacterium kansasii) of the same compound?
A: The MIC90 was 0.45 µM (≈ 0.25 µg/mL).

Q: And the MIC90 [4]?
A: The MIC90 was 0.24 µM.

Q: And the MIC90 [5]?
A: The MIC90 was 0.12 µM.

Q: And the MIC90 [6]?
A: The MIC90 was 0.24 µM.

Q: And the MIC90 [7]?
A: The MIC90 was 0.24 µM.

Q: What about the MIC90 [8] of the same compound?
A: Its MIC90 is 0.24 µM.

Q: What about the IC50 at 3 days [9] of the same compound?
A: Its IC50 at 3 days is 51.4 µM.

Q: And the MBC99 [10]?
A: The MBC99 was 150 µg/mL (≈ 270 µM).

— ChEMBL document CHEMBL6182867, “Discovery of ultra short β-peptoids with selective activity against drug-resistant Mycobacterium tuberculosis” (Eur J Med Chem, 2025)
